Patent US7148211B2, “Formulation for lipophilic agents” (Genzyme Corporation, priority 2002, dated 2006)

Key:
[1] = tested on: patients with advanced androgen-independent prostate cancer; test: Open-labeled clinical study of 1α,24-(OH)2D2 in advanced androgen-independent prostate cancer; format: in vivo; settings: for progression of metastatic disease (CAT scans, X-rays, bone scans): second phase, after one and two years
From the text: (§1) Patients with advanced androgen-independent prostate cancer participate in an open-labeled study of 1α,24-(OH)2D2. […] On admission to the study, patients begin a course of therapy with intravenous 1α,24-(OH)2D2 lasting 26 weeks, while discontinuing any previous use of calcium supplements, vitamin D supplements, and vitamin D hormone replacement therapies. During treatment, the patients are monitored at regular intervals for: (1) hypercalcemia, hyperphosphatemia, hypercalciuria, hyperphosphaturia and other toxicity; (2) evidence of changes in the progression of metastatic disease; and (3) compliance with the prescribed test drug dosage.
(§2) The study is conducted in two phases. During the first phase, the maximal tolerated dosage (MTD) of daily 1α,24-(OH)2D2 is determined by administering progressively higher dosages to successive groups of patients. All doses are administered in the morning before breakfast. The first group of patients is treated with 25.0 μg of 1α,24-(OH)2D2 (formulated with 2.5% w/w benzyl alcohol, 0.5%–2.5% w/w TWEEN™-20, and 20 ppm BHT). Subsequent groups of patients are treated with 50.0, 75.0 and 100.0 μg/day. Dosing is continued uninterrupted for the duration of the study unless serum calcium exceeds 11.6 mg/dL, or other toxicity of grade 3 or 4 is observed, in which case dosing is held in abeyance until resolution of the observed toxic effect(s) and then resumed at a level which has been decreased by 10.0 μg.
(§3) During the second phase, patients are treated with 1α,24-(OH)2D2 for 24 months at 0.5 and 1.0 times the MTD.

[2] = tested on: patients with advanced androgen-independent prostate cancer; test: Study of Example 7 repeated for 1α-(OH)D2 in prostate cancer; format: in vivo, human; settings: for progression of metastatic disease (CAT scans, X-rays, bone scans): phase two, after two years
From the text: as §1, §2, §3
The study of Example 7 is repeated for the active vitamin D compound, 1α-(OH)D2 (formulated with 2.5% w/w benzyl alcohol, 0.5%–2.5% w/w TWEEN™-20, and 20 ppm BHT). […] In summary, the present invention provides an improved formulation for lipophilic drug agents that are only slightly soluble in an aqueous vehicle. The formulation in addition to the lipophilic drug agent includes a lipophilic antioxidant, a non-ionic solubilizer or surfactant, and optionally, an agent which is an organic solvent/ preservative.

[3] = tested on: elderly subjects with secondary hyperparathyroidism; test: Open label study of elderly subjects with elevated blood PTH from secondary hyperparathyroidism; format: in vivo, human; settings: oral 2.5 μg/day, twelve weeks
Method: Thirty elderly subjects with secondary hyperparathyroidism are enrolled in an open label study. The selected subjects have ages between 60 and 100 years and have elevated serum PTH levels (greater than the upper limit of young normal range). Subjects also have femoral neck osteopenia (femoral neck bone mineral density of […]).
Subjects are requested to keep a diet providing approximately 500 mg calcium per day without the use of calcium supplements. For a twelve week treatment period, subjects self-administer orally 2.5 μg/day 1α-OH-vitamin D2.(i.e., 2.5 μg doxercalciferol, 2.5% w/w benzyl alcohol, 0.5%–2.5% w/w TWEEN™-20, and 20 ppm BHT) At regular intervals throughout the treatment period, subjects are monitored for serum PTH levels, serum calcium and phosphorus, and urine calcium and phosphorus levels. Efficacy is evaluated by pre- and post-treatment comparisons of serum PTH levels. Safety is evaluated by serum and urine calcium and phosphorus values.

[4] = tested on: End Stage Renal Disease patients with secondary hyperparathyroidism; test: Double-blind placebo-controlled study in ESRD hemodialysis patients exhibiting secondary hyperparathyroidism; format: in vivo, human
From the text: Up to 120 ESRD (End Stage Renal Disease) patients undergoing chronic hemodialysis are studied in a multicenter, double-blind, placebo-controlled study based in two major U.S. metropolitan areas. The selected patients reside in two major metropolitan areas within the continental U.S., have ages between 20 and 75 years and have a history of secondary hyperparathyroidism. They have been on hemodialysis for at least four months, have a normal (or near normal) serum albumin, and have controlled serum phosphorus (often by using oral calcium phosphate binders).
On admission to the study, each patient is assigned at random to one of two treatment groups. One of these groups receives two consecutive 12-week courses of therapy with 1α-OH-vitamin D2 (doxercalciferol); the other receives a 12-week course of therapy with 1α-OH-vitamin D2 followed, without interruption, by a 12-week course of placebo therapy. Each patient discontinues any 1, α,25-(OH)2-vitamin D3 therapy for eight weeks prior to initiating 1α-OH-vitamin D2 therapy (daily dose of 4 μg doxercalciferol, formulated with 2.5% w/w benzyl alcohol, 0.5%–2.5% w/w TWEEN™-20, and 20 ppm BHT). Throughout this eight-week washout (or control) period and the two subsequent 12-week treatment periods, patients are monitored weekly for serum calcium and phosphorus. Serum intact PTH is monitored weekly or biweekly, and bone-specific serum markers, serum vitamin D metabolites, serum albumin, blood chemistries, hemoglobin and hematocrit are monitored at selected intervals.
During the study, patients undergo routine hemodialysis (three times per week) using a 1.24 mM calcium dialysate and ingest calcium phosphate binders (such as calcium carbonate or calcium acetate) in an amount sufficient to keep serum phosphate controlled (6.9 mg/dL). Patients who develop persistent mild hypercalcemia or mild hyperphosphatemia during the treatment periods reduce their 1α-OH-vitamin D2 to 4 μg three times per week (or lower). Patients who develop marked hypercalcemia or marked hyperphosphatemia immediately suspend treatment. Such patients are monitored at twice weekly intervals until the serum calcium or phosphorus is normalized, and resume 1α-OH-vitamin D2 dosing at a rate which is 4 μg three times per week (or lower).

[5] = treated with the MTD for at least six months

With `C=C1/C(=C\C=C2/CCC[C@]3(C)[C@@H]([C@H](C)/C=C/C(C)(O)C(C)C)CC[C@@H]23)C[C@H](O)C[C@H]1O` (stereo partly drawn) [1α,24-(OH)2D2, 1α,24-dihydroxyvitamin D2] the “circulating levels of 1α,25-(OH)2D2” value ([1]; blood samples of patients treated with 1α,24-(OH)2D2) was “suppressed, often to undetectable levels”, the “dose dependence of levels of circulating 1α,24-(OH)2D2” value ([1]; human, in vivo) was “increase proportionately with the dosage administered” and the “maximum levels of circulating 1α,24-(OH)2D2” value ([1]; human, in vivo) was “above 100 pg/mL”. For the same compound, the “serum and urine calcium” value ([1]; human, in vivo) was “elevated in a dose responsive manner”, the “progression of metastatic disease (CAT scans, X-rays, bone scans)” value (from here on “progression of metastatic disease”) ([1]; higher dosage (1.0 times the MTD)) was “stable disease and partial or complete remission in many patients” and the “progression of metastatic disease” value ([1]; lower dosage (0.5 times the MTD)) was “stable disease or partial remission in many patients”. The “bone pain associated with metastatic disease” value [1, 5] was “significantly diminished”.
With `C=C1/C(=C\C=C2/CCC[C@]3(C)[C@@H]([C@H](C)/C=C/[C@H](C)C(C)C)CC[C@@H]23)C[C@@H](O)C[C@@H]1O` [1α-OH-vitamin D2, 1α-hydroxyvitamin D2] the “progression of metastatic disease” value ([2]; higher dosage) was “stable disease and partial or complete remission in many patients”, the “progression of metastatic disease” value ([2]; lower dosage) was “stable disease or partial remission in many patients” and the “bone pain associated with metastatic disease” value [2, 5] was “significantly diminished”. For the same compound, the “PTH levels, pre- and post-treatment comparison” value [3] was “significantly reduce PTH levels”, the “incidence of hypercalcemia, hyperphosphatemia, hypercalciuria and hyperphosphaturia” value [3] was “insignificant incidence” and the “reduction of serum PTH levels (study conclusion)” value ([4]; ESRD patients) was “effective in reducing serum PTH levels”. The “mean serum PTH after initiation of dosing” value ([4]; ESRD patients, daily dose of 4 μg doxercalciferol formulated with benzyl alcohol, TWEEN-20, BHT) was “less than 50 % of pretreatment levels”, the “safety compared with currently used therapies (study conclusion)” value ([4]; despite higher dosages and concurrent high levels of oral calcium phosphate binder) was “safer than currently used therapies” and the “serum levels of calcium and phosphorus” value ([4]; end of first 12-week treatment period, for end stage renal disease patients) was “normal or near normal”. The hypercalcemia ([4]; patients exhibiting excessive suppression of serum PTH, corrected by dosage reduction) was “transient mild hypercalcemia is observed”.
